# In PubChem BioAssay (NCI):
#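 Grown in 96-well plates, cells were treated for 48 hours with each compound at five concentrations. Insufficient inhibition: endpoint recorded as highest concentration tested. At the TGI there is no net growth.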
# Legend:
# Assay in all cases: NCI-60 cell line screen, 48 h
# [1] = system: SF-295 CNS
# [2] = system: HT29 colon
# [3] = system: K-562 leukemia
# [4] = system: OVCAR-5 ovarian
# [5] = system: NCI/ADR-RES ovarian
# [6] = system: UACC-257 melanoma
# [7] = system: RXF 393 renal
# [8] = system: NCI-H226 lung
# [9] = system: HCT-15 colon
# [10] = system: SK-MEL-2 melanoma
# [11] = system: EKVX NSCLC
# [12] = system: SNB-75 CNS
# [13] = system: MDA-MB-435
# [14] = system: MALME-3M melanoma
# [15] = system: OVCAR-4 ovarian
# [16] = system: SF-539 CNS
# [17] = system: MDA-N
# [18] = system: HOP-92 NSCLC
# [19] = system: SW-620 colon
# [20] = system: CCRF-CEM leukemia
# [21] = system: PC-3 prostate
# [22] = system: MDA-MB-231 breast
# [23] = system: SK-MEL-28 melanoma
# [24] = system: OVCAR-3 ovarian
# [25] = system: U251 CNS
# [26] = system: CAKI-1 renal
# [27] = system: SNB-19 CNS
# [28] = system: UACC-62 melanoma
# [29] = system: KM12 colon
# [30] = system: LOX IMVI melanoma
# [31] = system: DU-145 prostate
# [32] = system: NCI-H460 lung
# [33] = system: BT-549 breast
# [34] = system: COLO 205 colon
# [35] = system: HCT-116 colon
# [36] = system: OVCAR-8 ovarian
# [37] = system: RPMI-8226 leukemia
# [38] = system: M14 melanoma
# [39] = system: SK-MEL-5 melanoma
# [40] = system: HS 578T breast
# [41] = system: MOLT-4 leukemia
# [42] = system: NCI-H23 lung
# [43] = system: HL-60(TB) leukemia
# [44] = system: NCI-H522 lung
# [45] = system: UO-31 renal
# [46] = system: A498 renal
# [47] = system: HOP-62 NSCLC
# [48] = system: TK-10 renal
# [49] = system: HCC-2998 colon
# [50] = system: SR leukemia
# [51] = system: SN12C renal
# [52] = system: ACHN renal
# [53] = system: SF-268 CNS
# [54] = system: A549 NSCLC
# [55] = system: T-47D breast
# [56] = system: SK-OV-3 ovarian
# [57] = system: IGROV1 ovarian
# [58] = system: MCF7 breast
# [59] = system: 786-0 renal
structure (smiles),measurement,setting,value
CC(=O)OCC1OC(n2c(-c3ccc(C)cc3)cc(-c3ccco3)c(C#N)c2=S)C(OC(C)=O)C(OC(C)=O)C1OC(C)=O (stereo not drawn),TGI,[1],> 100 µM
same,TGI,[2],> 100 µM
same,TGI,[3],> 100 µM
same,TGI,[4],> 100 µM
same,TGI,[5],> 100 µM
same,TGI,[6],> 100 µM
same,TGI,[7],> 100 µM
same,TGI,[8],> 100 µM
same,TGI,[9],> 100 µM
same,TGI,[10],> 100 µM
same,TGI,[11],> 100 µM
same,TGI,[12],> 100 µM
same,TGI,[13],> 100 µM
same,TGI,[14],> 100 µM
same,TGI,[15],> 100 µM
same,TGI,[16],36.1 µM
same,TGI,[17],> 100 µM
same,TGI,[18],81.1 µM
same,TGI,[19],> 100 µM
same,TGI,[20],> 100 µM
same,TGI,[21],> 100 µM
same,TGI,[22],78.4 µM
same,TGI,[23],> 100 µM
same,TGI,[24],> 100 µM
same,TGI,[25],> 100 µM
same,TGI,[26],> 100 µM
same,TGI,[27],> 100 µM
same,TGI,[28],45.2 µM
same,TGI,[29],> 100 µM
same,TGI,[30],> 100 µM
same,TGI,[31],> 100 µM
same,TGI,[32],> 100 µM
same,TGI,[33],> 100 µM
same,TGI,[34],> 100 µM
same,TGI,[35],> 100 µM
same,TGI,[36],> 100 µM
same,TGI,[37],> 100 µM
same,TGI,[38],> 100 µM
same,TGI,[39],> 100 µM
same,TGI,[40],> 100 µM
same,TGI,[41],> 100 µM
same,TGI,[42],> 100 µM
same,TGI,[43],> 100 µM
same,TGI,[44],> 100 µM
same,TGI,[45],> 100 µM
same,TGI,[46],> 100 µM
same,TGI,[47],> 100 µM
same,TGI,[48],> 100 µM
same,TGI,[49],> 100 µM
same,TGI,[50],> 100 µM
same,TGI,[51],> 100 µM
same,TGI,[52],> 100 µM
same,TGI,[53],> 100 µM
same,TGI,[54],> 100 µM
same,TGI,[55],> 100 µM
same,TGI,[56],> 100 µM
same,TGI,[57],> 100 µM
same,TGI,[58],> 100 µM
Cc1ccc(/C=N/Nc2ccccn2)s1,TGI,[1],> 100 µM
same,TGI,[2],> 100 µM
same,TGI,[4],> 100 µM
same,TGI,[5],> 100 µM
same,TGI,[6],> 100 µM
same,TGI,[7],> 100 µM
same,TGI,[8],> 100 µM
same,TGI,[9],> 100 µM
same,TGI,[10],> 100 µM
same,TGI,[11],> 100 µM
same,TGI,[12],> 100 µM
same,TGI,[13],> 100 µM
same,TGI,[14],> 100 µM
same,TGI,[15],> 100 µM
same,TGI,[16],> 100 µM
same,TGI,[17],> 100 µM
same,TGI,[18],> 100 µM
same,TGI,[19],> 100 µM
same,TGI,[20],> 100 µM
same,TGI,[21],> 100 µM
same,TGI,[22],> 100 µM
same,TGI,[23],> 100 µM
same,TGI,[24],> 100 µM
same,TGI,[25],> 100 µM
same,TGI,[26],> 100 µM
same,TGI,[27],> 100 µM
same,TGI,[28],> 100 µM
same,TGI,[29],> 100 µM
same,TGI,[30],> 100 µM
same,TGI,[31],> 100 µM
same,TGI,[59],> 100 µM
same,TGI,[32],> 100 µM
same,TGI,[33],> 100 µM
same,TGI,[34],> 100 µM
same,TGI,[35],> 100 µM
same,TGI,[36],> 100 µM
same,TGI,[37],> 100 µM
same,TGI,[38],> 100 µM
same,TGI,[39],> 100 µM
same,TGI,[40],> 100 µM
same,TGI,[41],> 100 µM
same,TGI,[42],> 100 µM
same,TGI,[43],> 100 µM
same,TGI,[44],> 100 µM
same,TGI,[45],> 100 µM
same,TGI,[46],> 100 µM
same,TGI,[47],> 100 µM
same,TGI,[48],> 31.6 µM
same,TGI,[49],> 100 µM
same,TGI,[50],> 100 µM
same,TGI,[51],> 100 µM
same,TGI,[52],> 100 µM
same,TGI,[53],> 100 µM
same,TGI,[54],> 100 µM
same,TGI,[55],> 100 µM
same,TGI,[56],> 100 µM
same,TGI,[57],> 100 µM
same,TGI,[58],> 100 µM
CCC/C=C/C=C/C(=O)OC1C(C)C2(O)C3C=C(C)C(=O)C3CC(COC(C)=O)=CC2C2C(C)(C)C12OC(=O)C(C)C (stereo not drawn),TGI,[1],22.1 µM
same,TGI,[2],25 µM
same,TGI,[3],> 68.6 µM
same,TGI,[4],47.9 µM
same,TGI,[5],47.3 µM
same,TGI,[6],31.8 µM
same,TGI,[7],33.6 µM
same,TGI,[8],42.1 µM
same,TGI,[10],35.2 µM
same,TGI,[11],42.5 µM
same,TGI,[12],36.1 µM
same,TGI,[13],18.3 µM
same,TGI,[14],26.5 µM
same,TGI,[15],57.6 µM
same,TGI,[16],25 µM
same,TGI,[17],20.1 µM
same,TGI,[18],27.2 µM
same,TGI,[19],20.4 µM
same,TGI,[20],19.1 µM
same,TGI,[21],27.3 µM
same,TGI,[22],20.2 µM
same,TGI,[23],26.1 µM
same,TGI,[24],32.8 µM
same,TGI,[26],33.9 µM
same,TGI,[27],52.6 µM
same,TGI,[28],16.3 µM
same,TGI,[29],32 µM
same,TGI,[30],34.8 µM
same,TGI,[31],> 100 µM
same,TGI,[59],23.1 µM
same,TGI,[32],> 83.7 µM
same,TGI,[33],35.1 µM
same,TGI,[34],9.18 µM
same,TGI,[35],26.8 µM
same,TGI,[36],55.8 µM
same,TGI,[37],52.5 µM
same,TGI,[38],27.7 µM
same,TGI,[39],19.2 µM
same,TGI,[40],55.4 µM
same,TGI,[41],16.2 µM
same,TGI,[42],26.9 µM
same,TGI,[43],> 48.3 µM
same,TGI,[44],26.8 µM
same,TGI,[45],29.4 µM
same,TGI,[46],44.9 µM
same,TGI,[47],0.0586 µM
same,TGI,[48],47.1 µM
same,TGI,[49],14.7 µM
same,TGI,[50],35.8 µM
same,TGI,[51],23.5 µM
same,TGI,[52],39.3 µM
same,TGI,[53],28.4 µM
same,TGI,[54],> 100 µM
same,TGI,[55],35.4 µM
same,TGI,[56],> 100 µM
same,TGI,[57],33.1 µM
same,TGI,[58],32 µM
